Where two headings read alike, the source gives them in different places.
How the values were obtained:
CCRF-CEM = assay: NCI 60 antitumor screening (single dose / five doses); format: cell-based; settings: Homo sapiens, read-out: Growth inhibition percentage (GI %)
SF-539 = assay: as above; format: cell-based; settings: Homo sapiens
BT-549 = assay: as above; format: cell-based; settings: Homo sapiens
HL-60(TB) = assay: as above; format: cell-based; settings: Homo sapiens
UACC-62 = assay: as above; format: cell-based; settings: Homo sapiens
RXF 393 = assay: as above; format: cell-based; settings: Homo sapiens
786-0 = assay: as above; format: cell-based; settings: Homo sapiens
UO-31 = assay: as above; format: cell-based; settings: Homo sapiens
RPMI-8226 = assay: as above; format: cell-based; settings: Homo sapiens
HCT-15 = assay: as above; format: cell-based; settings: Homo sapiens
HT29 = assay: as above; format: cell-based, human; settings: Homo sapiens
NCI-H23 = assay: NCI 60 antitumor screening (single dose); format: cell-based; settings: Homo sapiens; NCI-H23 (non-small cell lung cancer), single dose 10 μM; read-out: Growth inhibition percentage (GI %)
Outline: (§1)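 Under the NCI Drug Evaluation Branch protocol, each compound is screened at one 10 μM concentration on the 60-line human tumour panel. Growth of treated cells is expressed as G%, and inhibition is reported as 100 − G%.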

A549/ATCC = assay: NCI 60 antitumor screening (single dose); format: cell-based; settings: Homo sapiens; A549/ATCC (non-small cell lung cancer), single dose 10 μM; read-out: Growth inhibition percentage (GI %)
Outline: (§2)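 Test compound added at 10 μM to each of 60 human cancer lines from nine tumour types; growth measured per NCI protocol in triplicate; percent growth converted to inhibition (100 − G%).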

NCI-H522 = assay: NCI 60 antitumor screening (single dose); format: cell-based; settings: Homo sapiens; NCI-H522 (non-small cell lung cancer), single dose 10 μM; read-out: Growth inhibition percentage (GI %)
Outline: as §1

CAKI-1 = assay: NCI 60 antitumor screening (single dose); format: cell-based; settings: Homo sapiens
Outline: as §2

SF-268 = assay: NCI 60 antitumor screening (single dose); format: cell-based; settings: Homo sapiens; SF-268 (CNS cancer), single dose 10 μM; read-out: Growth inhibition percentage (GI %)
Outline: as §1

MCF7 = assay: NCI 60 antitumor screening (single dose); format: cell-based; settings: Homo sapiens
Outline: as §2

NCI-H322M = assay: NCI 60 antitumor screening (single dose); format: cell-based; settings: Homo sapiens; NCI-H322M (non-small cell lung cancer), single dose 10 μM; read-out: Growth inhibition percentage (GI %)
Outline: as §2

M14 = assay: NCI 60 antitumor screening (single dose); format: cell-based; settings: Homo sapiens
Outline: as §2

SNB-75 = assay: NCI 60 antitumor screening (single dose / five doses); format: cell-based; settings: Homo sapiens
SK-MEL-5 = assay: as above; format: cell-based; settings: Homo sapiens
A498 = assay: as above; format: cell-based; settings: Homo sapiens
MOLT-4 = assay: as above; format: cell-based; settings: Homo sapiens
MALME-3M = assay: as above; format: cell-based; settings: Homo sapiens, read-out: Growth inhibition percentage (GI %)
MDA-MB-435 = assay: as above; format: cell-based; settings: Homo sapiens
[1] = system: 60 human subpanel cancer cell lines; assay: NCI 60 antitumor screening, mean over the panel (single dose); format: cell-based; settings: mean over 60 cancer cell lines, single dose 10 μM
Outline: as §1

SW-620 = assay: NCI 60 antitumor screening (single dose / five doses); format: cell-based, human; settings: Homo sapiens
MDA-MB-231/ATCC = assay: as above; format: cell-based; settings: Homo sapiens

SMILES: O=[N+]([O-])c1cccc(/C=N/Nc2nc(N/N=C/c3cccc([N+](=O)[O-])c3)nc(N3CCOCC3)n2)c1 [compound 6f, 2-(Morpholin-4-yl)-4,6-bis[(E)-2-[(3-nitrophenyl)methylidene]hydrazin-1-yl]-1,3,5-triazine]
- inhibition at 10 µM (CCRF-CEM; CCRF-CEM): 58.4%
- inhibition at 10 µM (SF-539; SF-539, read-out: Growth inhibition percentage (GI %)): 6.2%
- inhibition at 10 µM (BT-549; BT-549, read-out: Growth inhibition percentage (GI %)): 11.7%
- inhibition at 10 µM (HL-60(TB); HL-60, read-out: Growth inhibition percentage (GI %)): 47.8%
- inhibition at 10 µM (UACC-62; UACC-62, read-out: Growth inhibition percentage (GI %)): 21.1%
- inhibition at 10 µM (RXF 393; RXF 393, read-out: Growth inhibition percentage (GI %)): 28.1%
- inhibition at 10 µM (786-0; 786-0, read-out: Growth inhibition percentage (GI %)): 30.4%
- inhibition at 10 µM (UO-31; UO-31, read-out: Growth inhibition percentage (GI %)): 50.7%
- inhibition at 10 µM (RPMI-8226; RPMI-8226, read-out: Growth inhibition percentage (GI %)): 66.4%
- inhibition at 10 µM (HCT-15; HCT-15, read-out: Growth inhibition percentage (GI %)): 53.2%
- inhibition at 10 µM (HT29; HT-29, read-out: Growth inhibition percentage (GI %)): 42.2%
- inhibition at 10 µM (NCI-H23): 27.6%
- inhibition at 10 µM (A549/ATCC): 28.6%
- inhibition at 10 µM (NCI-H522): 34.8%
- inhibition at 10 µM (CAKI-1; CAKI-1, read-out: Growth inhibition percentage (GI %)): 29.5%
- inhibition at 10 µM (SF-268): 6.36%
- inhibition at 10 µM (MCF7; MCF7, read-out: Growth inhibition percentage (GI %)): 34.7%
- inhibition at 10 µM (NCI-H322M): 5.64%
- inhibition at 10 µM (M14; M14, read-out: Growth inhibition percentage (GI %)): 14%
- inhibition at 10 µM (SNB-75; SNB-75, read-out: Growth inhibition percentage (GI %)): 11.2%
- inhibition at 10 µM (SK-MEL-5; SK-MEL-5, read-out: Growth inhibition percentage (GI %)): 36.9%
- inhibition at 10 µM (A498; A498, read-out: Growth inhibition percentage (GI %)): 13.1%
- inhibition at 10 µM (MOLT-4; MOLT-4, read-out: Growth inhibition percentage (GI %)): 52.7%
- inhibition at 10 µM (MALME-3M; Malme-3M): 6.12%
- inhibition at 10 µM (MDA-MB-435; MDA-MB-435, read-out: Growth inhibition percentage (GI %)): 9.84%
- Mean GI % [1]: 23.39%
- inhibition at 10 µM (SW-620; SW-620, read-out: Growth inhibition percentage (GI %)): 18.4%
- inhibition at 10 µM (MDA-MB-231/ATCC; MDA-MB-231, read-out: Growth inhibition percentage (GI %)): 2.27%

SMILES: Clc1cccc(/C=N/Nc2nc(N/N=C/c3cccc(Cl)c3Cl)nc(N3CCOCC3)n2)c1Cl [compound 6h, 2,4-Bis[(E)-2-[(2,3-Dichlorophenyl)methylidene]hydrazin-1-yl]-6-(morpholin-4-yl)-1,3,5-triazine]
- inhibition at 10 µM (CCRF-CEM; CCRF-CEM (leukaemia), single dose 10 μM): 16.5%
- inhibition at 10 µM (SF-539; SF-539 (CNS cancer), single dose 10 μM, read-out: Growth inhibition percentage (GI %)): 44.2%
- inhibition at 10 µM (BT-549; BT-549 (breast cancer), single dose 10 μM, read-out: Growth inhibition percentage (GI %)): 0.16%
- inhibition at 10 µM (HL-60(TB); HL-60(TB) (leukaemia), single dose 10 μM, read-out: Growth inhibition percentage (GI %)): -3.95%
- inhibition at 10 µM (UACC-62; UACC-62 (melanoma), single dose 10 μM, read-out: Growth inhibition percentage (GI %)): 11.3%
- inhibition at 10 µM (RXF 393; RXF 393 (renal cancer), single dose 10 μM, read-out: Growth inhibition percentage (GI %)): 5.06%
- inhibition at 10 µM (786-0; 786-0, 786-0 (renal cancer), single dose 10 μM, read-out: Growth inhibition percentage (GI %)): 1.86%
- inhibition at 10 µM (UO-31; UO-31 (renal cancer), single dose 10 μM, read-out: Growth inhibition percentage (GI %)): 16.1%
- inhibition at 10 µM (RPMI-8226; RPMI-8226 (leukaemia), single dose 10 μM, read-out: Growth inhibition percentage (GI %)): 12.1%
- inhibition at 10 µM (HCT-15; HCT-15 (colon cancer), single dose 10 μM, read-out: Growth inhibition percentage (GI %)): 15.2%
- inhibition at 10 µM (HT29; HT-29, HT29 (colon cancer), single dose 10 μM, read-out: Growth inhibition percentage (GI %)): 12.9%
- inhibition at 10 µM (NCI-H23): 25.5%
- inhibition at 10 µM (A549/ATCC): 3.4%
- inhibition at 10 µM (NCI-H522): 21.4%
- inhibition at 10 µM (CAKI-1; CAKI-1 (renal cancer), single dose 10 μM, read-out: Growth inhibition percentage (GI %)): -1.35%
- inhibition at 10 µM (SF-268): 13%
- inhibition at 10 µM (MCF7; MCF7 (breast cancer), single dose 10 μM, read-out: Growth inhibition percentage (GI %)): 25.1%
- inhibition at 10 µM (NCI-H322M): 11.9%
- inhibition at 10 µM (M14; M14 (melanoma), single dose 10 μM, read-out: Growth inhibition percentage (GI %)): -4.08%
- inhibition at 10 µM (SNB-75; SNB-75 (CNS cancer), single dose 10 μM, read-out: Growth inhibition percentage (GI %)): -19.6%
- inhibition at 10 µM (SK-MEL-5; SK-MEL-5 (melanoma), single dose 10 μM, read-out: Growth inhibition percentage (GI %)): 15.5%
- inhibition at 10 µM (A498; A498 (renal cancer), single dose 10 μM, read-out: Growth inhibition percentage (GI %)): -10.5%
- inhibition at 10 µM (MOLT-4; MOLT-4 (leukaemia), single dose 10 μM, read-out: Growth inhibition percentage (GI %)): 16.1%
- inhibition at 10 µM (MALME-3M; MALME-3M (melanoma), single dose 10 μM): 2.72%
- inhibition at 10 µM (MDA-MB-435; MDA-MB-435 (melanoma), single dose 10 μM, read-out: Growth inhibition percentage (GI %)): -6.86%
- Mean GI % [1]: 9.97%
- inhibition at 10 µM (SW-620; SW-620 (colon cancer), single dose 10 μM, read-out: Growth inhibition percentage (GI %)): -6.25%
- inhibition at 10 µM (MDA-MB-231/ATCC; MDA-MB-231/ATCC (breast cancer), single dose 10 μM, read-out: Growth inhibition percentage (GI %)): 13.8%
